Measured values from ChEMBL document CHEMBL1201861, “Genomics of Drug Sensitity in Cancer screening data, Wellcome Trust Sanger Institute”.

Columns and labels:
Assay in all cases: cells
Settings in all cases: Homo sapiens
[1] = test system: COLO-824; type: functional, cell-based
Description: SANGER: Inhibition of human COLO-824 cell growth in a cell viability assay.

[2] = test system: CP66-MEL; type: functional, cell-based;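 further: growth inhibition of CP66-MEL cells determined in a cell viability assay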
Description: SANGER: Inhibition of human CP66-MEL cell growth in a cell viability assay.

[3] = test system: CTV-1; type: functional, cell-based;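 further: growth inhibition of the cell line, read out with a cell viability assay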
Description: SANGER: Inhibition of human CTV-1 cell growth in a cell viability assay.

[4] = test system: CW-2; type: functional, cell-based;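 further: growth inhibition of CW-2 cells, read out by a cell viability assay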
Description: SANGER: Inhibition of human CW-2 cell growth in a cell viability assay.

[5] = test system: D283 Med; type: functional, cell-based
Description: SANGER: Inhibition of human D-283MED cell growth in a cell viability assay.

[6] = test system: DB; type: functional, cell-based
Description: SANGER: Inhibition of human DB cell growth in a cell viability assay.

[7] = test system: DEL; type: functional, cell-based;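 further: growth inhibition of the human DEL cell line, read out with a cell viability assay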
Description: SANGER: Inhibition of human DEL cell growth in a cell viability assay.

[8] = test system: DMS-79; type: functional, cell-based;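 further: growth inhibition measured with a cell viability assay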
Description: SANGER: Inhibition of human DMS-79 cell growth in a cell viability assay.

[9] = test system: GAK; type: functional, cell-based;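 further: cell growth inhibition read out by a cell viability assay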
Description: SANGER: Inhibition of human GAK cell growth in a cell viability assay.

[10] = test system: GI-ME-N; type: functional, cell-based;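 further: growth inhibition of human GI-ME-N cells, read out with a cell viability assay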
Description: SANGER: Inhibition of human GI-ME-N cell growth in a cell viability assay.

[11] = test system: HEL; type: functional, cell-based;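 further: growth inhibition of HEL cells, read out with a cell viability assay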
Description: SANGER: Inhibition of human HEL cell growth in a cell viability assay.

[12] = test system: KALS-1; type: functional, cell-based;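 further: growth inhibition of KALS-1 cells, determined with a cell viability assay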
Description: SANGER: Inhibition of human KALS-1 cell growth in a cell viability assay.

[13] = test system: KINGS-1; type: functional, cell-based;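 further: cell viability assay measuring suppression of KINGS-1 cell growth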
Description: SANGER: Inhibition of human KINGS-1 cell growth in a cell viability assay.

[14] = test system: KLE; type: functional, cell-based;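 further: growth inhibition of human KLE cells, read out with a cell viability assay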
Description: SANGER: Inhibition of human KLE cell growth in a cell viability assay.

[15] = test system: KNS-42; type: functional, cell-based;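 further: growth inhibition of KNS-42 cells, read out with a cell viability assay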
Description: SANGER: Inhibition of human KNS-42 cell growth in a cell viability assay.

[16] = test system: KP-N-YS; type: functional, cell-based;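 further: cell viability assay measuring inhibition of cell line growth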
Description: SANGER: Inhibition of human KP-N-YS cell growth in a cell viability assay.

[17] = test system: KU812 cell line; type: functional, cell-based;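 further: growth inhibition of KU812 cells, read out with a cell viability assay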
Description: SANGER: Inhibition of human KU812 cell growth in a cell viability assay.

[18] = test system: KURAMOCHI; type: functional, cell-based;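 further: growth inhibition of KURAMOCHI cells, read out with a cell viability assay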
Description: SANGER: Inhibition of human KURAMOCHI cell growth in a cell viability assay.

[19] = test system: LC-2-ad; type: functional, cell-based;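 further: growth inhibition of human LC-2-ad cells, read out with a cell viability assay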
Description: SANGER: Inhibition of human LC-2-ad cell growth in a cell viability assay.

[20] = test system: LOX IMVI; type: functional, cell-based
Description: SANGER: Inhibition of human LOXIMVI cell growth in a cell viability assay.

[21] = test system: LU-139; type: functional, cell-based
Description: SANGER: Inhibition of human LU-139 cell growth in a cell viability assay.

[22] = test system: Lu-65; type: functional, cell-based;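 further: growth inhibition of Lu-65 cancer cells, read out by a cell viability assay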
Description: SANGER: Inhibition of human LU-65 cell growth in a cell viability assay.

[23] = test system: MEG-01; type: functional, cell-based;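 further: growth inhibition of MEG-01 cells, read out by a cell viability assay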
Description: SANGER: Inhibition of human MEG-01 cell growth in a cell viability assay.

[24] = test system: MFM-223; type: functional, cell-based
Description: SANGER: Inhibition of human MFM-223 cell growth in a cell viability assay.

[25] = test system: MN-60; type: functional, cell-based;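 further: growth inhibition of the MN-60 cell line, determined with a cell viability assay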
Description: SANGER: Inhibition of human MN-60 cell growth in a cell viability assay.

[26] = test system: MPP-89; type: functional, cell-based;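 further: growth inhibition of human MPP-89 cells, read out with a cell viability assay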
Description: SANGER: Inhibition of human MPP-89 cell growth in a cell viability assay.

[27] = test system: MS-1; type: functional, cell-based;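 further: growth inhibition of MS-1 cells, read out by cell viability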
Description: SANGER: Inhibition of human MS-1 cell growth in a cell viability assay.

[28] = test system: MSTO-211H; type: functional, cell-based
Description: SANGER: Inhibition of human MSTO-211H cell growth in a cell viability assay.

[29] = test system: MZ1-PC; type: functional, cell-based;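 further: cell viability assay measuring growth inhibition of human MZ1-PC cells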
Description: SANGER: Inhibition of human MZ1-PC cell growth in a cell viability assay.

[30] = test system: Mo; type: functional, cell-based
Description: SANGER: Inhibition of human Mo-T cell growth in a cell viability assay.

[31] = test system: NB10; type: functional, cell-based;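 further: growth inhibition of NB10 cells, read out by a cell viability assay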
Description: SANGER: Inhibition of human NB10 cell growth in a cell viability assay.

[32] = test system: NB5; type: functional, cell-based;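 further: growth inhibition of NB5 cells, read out as cell viability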
Description: SANGER: Inhibition of human NB5 cell growth in a cell viability assay.

[33] = test system: NCI-H1092; type: functional, cell-based;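 further: cell growth inhibition measured with a cell viability assay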
Description: SANGER: Inhibition of human NCI-H1092 cell growth in a cell viability assay.

[34] = test system: NCI-H1648; type: functional, cell-based;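 further: cell viability assay measuring inhibition of NCI-H1648 cell growth, from the Sanger screening data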
Description: SANGER: Inhibition of human NCI-H1648 cell growth in a cell viability assay.

[35] = test system: NCI-H1770; type: functional, cell-based;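 further: growth inhibition of NCI-H1770 cells determined with a viability readout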
Description: SANGER: Inhibition of human NCI-H1770 cell growth in a cell viability assay.

[36] = test system: NCI-H226; type: functional, cell-based;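 further: cell viability read-out used to gauge growth inhibition of the cells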
Description: SANGER: Inhibition of human NCI-H226 cell growth in a cell viability assay.

[37] = test system: NCI-H23; type: functional, cell-based;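 further: cell viability assay measuring growth inhibition of NCI-H23 cells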
Description: SANGER: Inhibition of human NCI-H23 cell growth in a cell viability assay.

[38] = test system: NCI-H510A; type: functional, cell-based;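 further: growth inhibition of NCI-H510A cells, read out with a cell viability assay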
Description: SANGER: Inhibition of human NCI-H510A cell growth in a cell viability assay.

[39] = test system: SNU1; type: functional, cell-based;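 further: growth inhibition of human NCI-SNU-1 cells, measured with a cell viability assay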
Description: SANGER: Inhibition of human NCI-SNU-1 cell growth in a cell viability assay.

[40] = test system: NEC8; type: functional, cell-based;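 further: growth inhibition of human NEC8 cells, read out by a cell viability assay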
Description: SANGER: Inhibition of human NEC8 cell growth in a cell viability assay.

[41] = test system: NH-12; type: functional, cell-based;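 further: growth inhibition of NH-12 cells, read out with a cell viability assay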
Description: SANGER: Inhibition of human NH-12 cell growth in a cell viability assay.

[42] = test system: NOS-1; type: functional, cell-based;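 further: growth inhibition of the human NOS-1 cell line, read out with a cell viability assay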
Description: SANGER: Inhibition of human NOS-1 cell growth in a cell viability assay.

[43] = test system: NTERA-2-cl-D1; type: functional, cell-based;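 further: inhibition of cell growth, measured with a cell viability assay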
Description: SANGER: Inhibition of human NTERA-S-cl-D1 cell growth in a cell viability assay.

[44] = test system: OCUB-M; type: functional, cell-based;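 further: growth inhibition of the cancer cell line, read out through a cell viability assay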
Description: SANGER: Inhibition of human OCUB-M cell growth in a cell viability assay.

[45] = test system: RH-1; type: functional, cell-based;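 further: growth inhibition of human RH-1 cells, read out with a cell viability assay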
Description: SANGER: Inhibition of human RH-1 cell growth in a cell viability assay.

[46] = test system: SCC-15; type: functional, cell-based;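 further: growth inhibition of SCC-15 cells, read out with a cell viability assay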
Description: SANGER: Inhibition of human SCC-15 cell growth in a cell viability assay.

[47] = test system: SNB-75; type: functional, cell-based;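 further: cell viability assay measuring growth inhibition of human SNB-75 cells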
Description: SANGER: Inhibition of human SNB75 cell growth in a cell viability assay.

[48] = test system: SW684; type: functional, cell-based;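 further: growth inhibition of human SW684 cells, measured by a cell viability assay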
Description: SANGER: Inhibition of human SW684 cell growth in a cell viability assay.

[49] = test system: SW 954; type: functional, cell-based;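 further: growth inhibition of SW954 human cancer cells, read out as cell viability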
Description: SANGER: Inhibition of human SW954 cell growth in a cell viability assay.

[50] = test system: SW982; type: functional, cell-based;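 further: growth inhibition of SW982 cells, read out with a cell viability assay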
Description: SANGER: Inhibition of human SW982 cell growth in a cell viability assay.

[51] = test system: TE-1; type: functional, cell-based;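 further: growth inhibition of the human TE-1 cell line, read out with a cell viability assay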
Description: SANGER: Inhibition of human TE-1 cell growth in a cell viability assay.

[52] = test system: 8-MG-BA; type: functional, cell-based;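 further: growth inhibition of 8-MG-BA cells, read out with a cell viability assay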
Description: SANGER: Inhibition of human 8-MG-BA cell growth in a cell viability assay.

[53] = test system: ALL-PO; type: functional, cell-based;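 further: growth inhibition of ALL-PO cells, read out by a cell viability assay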
Description: SANGER: Inhibition of human ALL-PO cell growth in a cell viability assay.

[54] = test system: AM-38; type: functional, cell-based;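 further: growth inhibition of AM-38 cells of human origin, read out by a cell viability assay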
Description: SANGER: Inhibition of human AM-38 cell growth in a cell viability assay.

[55] = test system: TE-11; type: functional, cell-based;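 further: growth inhibition of human TE-11 cells, read out by a cell viability assay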
Description: SANGER: Inhibition of human TE-11 cell growth in a cell viability assay.

[56] = test system: TE-12; type: functional, cell-based;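 further: growth inhibition of TE-12 cells, read out by a cell viability assay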
Description: SANGER: Inhibition of human TE-12 cell growth in a cell viability assay.

[57] = test system: TE-9; type: functional, cell-based;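 further: cell growth inhibition, measured with a cell viability readout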
Description: SANGER: Inhibition of human TE-9 cell growth in a cell viability assay.

[58] = test system: TK-10; type: functional, cell-based
Description: SANGER: Inhibition of human TK10 cell growth in a cell viability assay.

[59] = test system: U-266; type: functional, cell-based
Description: SANGER: Inhibition of human U-266 cell growth in a cell viability assay.

[60] = test system: U-87 MG; type: functional, cell-based, U-87MG ATCC
Description: SANGER: Inhibition of human U-87-MG cell growth in a cell viability assay.

[61] = test system: UACC-257; type: functional, cell-based
Description: SANGER: Inhibition of human UACC-257 cell growth in a cell viability assay.

[62] = test system: no-11; type: functional, cell-based
Description: SANGER: Inhibition of human no-11 cell growth in a cell viability assay.

[63] = test system: CAS-1; type: functional, cell-based
Description: SANGER: Inhibition of human CAS-1 cell growth in a cell viability assay.

[64] = test system: CGTH-W-1; type: functional, cell-based
Description: SANGER: Inhibition of human CGTH-W-1 cell growth in a cell viability assay.

[65] = test system: COLO-684; type: functional, cell-based
Description: SANGER: Inhibition of human COLO-684 cell growth in a cell viability assay.

[66] = test system: HH; type: functional, cell-based
Description: SANGER: Inhibition of human HH cell growth in a cell viability assay.

C/C(O)=C(\C#N)C(=O)Nc1cc(Br)ccc1Br
IC50 [1]: > 16 µM | IC50 [2]: > 16 µM | IC50 [3]: > 16 µM | IC50 [4]: > 16 µM | IC50 [5]: > 16 µM | IC50 [6]: > 16 µM | IC50 [7]: > 16 µM | IC50 [8]: > 16 µM | IC50 [9]: > 16 µM | IC50 [10]: > 16 µM | IC50 [11]: > 16 µM | IC50 [12]: > 16 µM | IC50 [13]: > 16 µM | IC50 [14]: > 16 µM | IC50 [15]: > 16 µM | IC50 [16]: > 16 µM | IC50 [17]: > 16 µM | IC50 [18]: > 16 µM | IC50 [19]: > 16 µM | IC50 [20]: > 16 µM | IC50 [21]: > 16 µM | IC50 [22]: > 16 µM | IC50 [23]: > 16 µM | IC50 [24]: > 16 µM | IC50 [25]: > 16 µM | IC50 [26]: > 16 µM | IC50 [27]: > 16 µM | IC50 [28]: > 16 µM | IC50 [29]: > 16 µM | IC50 [30]: > 16 µM | IC50 [31]: > 16 µM | IC50 [32]: > 16 µM | IC50 [33]: > 16 µM | IC50 [34]: > 16 µM | IC50 [35]: > 16 µM | IC50 [36]: > 16 µM | IC50 [37]: > 16 µM | IC50 [38]: > 16 µM | IC50 [39]: > 16 µM | IC50 [40]: > 16 µM | IC50 [41]: > 16 µM | IC50 [42]: > 16 µM | IC50 [43]: > 16 µM | IC50 [44]: > 16 µM | IC50 [45]: > 16 µM | IC50 [46]: > 16 µM | IC50 [47]: > 16 µM | IC50 [48]: > 16 µM | IC50 [49]: > 16 µM | IC50 [50]: > 16 µM | IC50 [51]: > 16 µM | IC50 [52]: > 16 µM | IC50 [53]: > 16 µM | IC50 [54]: > 16 µM | IC50 [55]: > 16 µM | IC50 [56]: > 16 µM | IC50 [57]: > 16 µM | IC50 [58]: > 16 µM | IC50 [59]: > 16 µM | IC50 [60]: > 16 µM | IC50 [61]: > 16 µM | IC50 [62]: > 16 µM | IC50 [63]: > 16 µM | IC50 [64]: > 16 µM | IC50 [65]: > 16 µM

NC(=O)c1ncn([C@@H]2O[C@H](COP(=O)(O)O)[C@@H](O)[C@H]2O)c1N
IC50 [1]: 1130 µM | IC50 [2]: > 2000 µM | IC50 [3]: 266 µM | IC50 [4]: > 2000 µM | IC50 [5]: > 2000 µM | IC50 [6]: 91.3 µM | IC50 [7]: 232 µM | IC50 [8]: > 2000 µM | IC50 [9]: > 2000 µM | IC50 [10]: > 2000 µM | IC50 [11]: 804 µM | IC50 [66]: 232 µM | IC50 [12]: 1160 µM | IC50 [13]: > 2000 µM | IC50 [15]: > 2000 µM | IC50 [16]: > 2000 µM | IC50 [18]: > 2000 µM | IC50 [19]: 1170 µM | IC50 [20]: 929 µM | IC50 [21]: 803 µM | IC50 [22]: > 2000 µM | IC50 [23]: 447 µM | IC50 [24]: 1160 µM | IC50 [25]: > 2000 µM | IC50 [26]: > 2000 µM | IC50 [27]: 425 µM | IC50 [28]: 1740 µM | IC50 [29]: > 2000 µM | IC50 [30]: > 2000 µM | IC50 [31]: > 2000 µM | IC50 [32]: > 2000 µM | IC50 [33]: 1220 µM | IC50 [34]: > 2000 µM | IC50 [35]: 485 µM | IC50 [36]: > 2000 µM | IC50 [37]: > 2000 µM | IC50 [38]: > 2000 µM | IC50 [39]: 464 µM | IC50 [40]: > 2000 µM | IC50 [41]: > 2000 µM | IC50 [42]: 524 µM | IC50 [43]: > 2000 µM | IC50 [44]: 1190 µM | IC50 [45]: > 2000 µM | IC50 [46]: 466 µM | IC50 [47]: 1400 µM | IC50 [48]: 896 µM | IC50 [49]: 412 µM | IC50 [50]: > 2000 µM | IC50 [51]: 207 µM | IC50 [52]: > 2000 µM | IC50 [53]: 755 µM | IC50 [54]: 1030 µM | IC50 [55]: 587 µM | IC50 [56]: > 2000 µM | IC50 [57]: > 2000 µM | IC50 [58]: > 2000 µM | IC50 [59]: > 2000 µM | IC50 [60]: > 2000 µM | IC50 [61]: > 2000 µM | IC50 [62]: > 2000 µM | IC50 [63]: > 2000 µM | IC50 [64]: > 2000 µM | IC50 [65]: 894 µM
